# Measurements: the supplement of paper PMC11061612
# Tests used:
# AZD6738 = compound: C[C@@H]1COCCN1C2=NC(=NC(=C2)C3(CC3)[S@](=N)(=O)C)C4=C5C=CNC5=NC=C4 [AZD6738]; details: max 10 µM
# Summary of the method: (§1)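 Following 24 hours at 37°C and 5% CO2, cancer cell lines in 1536-well plates with 7.5 μl DMEM/F12 or RPMI and 10% FBS were dosed for 72 hours, final DMSO typically being 0.2%. CellTiter-Glo 2.0 luminescence, scaled between blank-well and DMSO-well means, gave the viability readout. Dose responses were fitted to a two-parameter logistic curve with a non-linear mixed effects model, and the single-agent IC50 was derived from this fit.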
# AZD1390 = compound: CC(C)n1c(=O)n(C)c2cnc3cc(F)c(-c4ccc(OCCCN5CCCCC5)nc4)cc3c21 [AZD1390]; details: max 0.3 µM
# Summary of the method: as §1
# Trametinib = compound: CC(=O)Nc1cccc(-n2c(=O)n(C3CC3)c(=O)c3c(Nc4ccc(I)cc4F)n(C)c(=O)c(C)c32)c1 [Trametinib]; details: max 1 µM
# Summary of the method: as §1
# Carboplatin = compound: C1CC(C1)(C(=O)[O-])C(=O)[O-].N.N.[Pt+2] [Carboplatin]; details: max 10 µM
# Summary of the method: as §1
# Crizotinib = compound: C[C@@H](Oc1cc(-c2cnn(C3CCNCC3)c2)cnc1N)c1c(Cl)ccc(F)c1Cl [Crizotinib]; details: max 10 µM
# Summary of the method: as §1
# AZD2811 = compound: CCN(CCO)CCCOc1ccc2c(Nc3cc(CC(=O)Nc4cccc(F)c4)[nH]n3)ncnc2c1 [AZD2811]; details: max 1 µM
# Summary of the method: as §1
# Etoposide = compound: COc1cc([C@@H]2c3cc4c(cc3[C@@H](O[C@@H]3O[C@@H]5CO[C@@H](C)O[C@H]5[C@H](O)[C@H]3O)[C@H]3COC(=O)[C@H]23)OCO4)cc(OC)c1O [Etoposide]; details: max 10 µM
# Summary of the method: as §1
# AZD1775 = compound: C=CCn1c(=O)c2cnc(Nc3ccc(N4CCN(C)CC4)cc3)nc2n1-c1cccc(C(C)(C)O)n1 [AZD1775]; details: max 3 µM
# Summary of the method: as §1
# Dasatinib = compound: CC1=C(C(=CC=C1)Cl)NC(=O)C2=CN=C(S2)NC3=CC(=NC(=N3)C)N4CCN(CC4)CCO [Dasatinib]; details: max 2 µM
# Summary of the method: as §1
# Gemcitabine = compound: Nc1ccn([C@@H]2O[C@H](CO)[C@@H](O)C2(F)F)c(=O)n1 [Gemcitabine]; details: max 0.3 µM
# Summary of the method: as §1
# AZD7648 = compound: Cc1cc2ncnn2cc1Nc1ncc2c(n1)n(C1CCOCC1)c(=O)n2C [AZD7648]; details: max 10 µM
# Summary of the method: as §1
# 5-Fluorouracil = compound: O=c1[nH]cc(F)c(=O)[nH]1 [5-Fluorouracil]; details: max 20 µM
# Summary of the method: as §1
# AZD0156 = compound: CN(C)CCCOc1ccc(-c2ccc3ncc4c(c3c2)n(C2CCOCC2)c(=O)n4C)cn1 [AZD0156]; details: max 3 µM
# Summary of the method: as §1
# SRA737 = compound: N#Cc1cnc(Nc2cc(NC[C@H]3CNCCO3)c(C(F)(F)F)cn2)cn1 [SRA737]; details: max 10 µM
# Summary of the method: as §1
# AZD5153 = compound: COc1nnc2ccc(N3CCC(c4ccc(OCCN5CCN(C)C(=O)[C@H]5C)cc4)CC3)nn12 [AZD5153]; details: max 1 µM
# Summary of the method: as §1
# Palbociclib = compound: CC(=O)c1c(C)c2cnc(Nc3ccc(N4CCNCC4)cn3)nc2n(C2CCCC2)c1=O [Palbociclib]; details: max 10 µM
# Summary of the method: as §1
# Taselisib = compound: Cc1nc(-c2cn3c(n2)-c2ccc(-c4cnn(C(C)(C)C(N)=O)c4)cc2OCC3)n(C(C)C)n1 [Taselisib]; details: max 10 µM
# Summary of the method: as §1
# Gefitinib = compound: COc1cc2ncnc(Nc3ccc(F)c(Cl)c3)c2cc1OCCCN1CCOCC1 [Gefitinib]; details: max 10 µM
# Summary of the method: as §1
# [1] = compound: O=C(Nc1ccc2[nH]nc(-c3ccncc3)c2c1)[C@@H]1CCN(CC(=O)N2CCN(c3ccc(-c4ncccn4)cc3)CC2)C1; details: max 5 µM
# Summary of the method: as §1
# Savolitinib = compound: C[C@@H](c1ccc2nccn2c1)n1nnc2ncc(-c3cnn(C)c3)nc21 [Savolitinib]; details: max 1 µM
# Summary of the method: as §1
# Selumetinib = compound: Cn1cnc2c(F)c(Nc3ccc(Br)cc3Cl)c(C(=O)NOCCO)cc21 [Selumetinib]; details: max 10 µM
# Summary of the method: as §1
# AZD5991 = compound: Cc1c2c(nn1C)CSCc1cc(n(C)n1)CSc1cc(c3ccccc3c1)OCCCc1c(C(=O)O)n(C)c3c-2c(Cl)ccc13 [AZD5991]; details: max 1 µM
# Summary of the method: as §1
# MK-2206 = compound: NC1(c2ccc(-c3nc4ccn5c(=O)[nH]nc5c4cc3-c3ccccc3)cc2)CCC1 [MK-2206]; details: max 10 µM
# Summary of the method: as §1
# Venetoclax = compound: CC1(C)CCC(CN2CCN(c3ccc(C(=O)NS(=O)(=O)c4ccc(NCC5CCOCC5)c([N+](=O)[O-])c4)c(Oc4cnc5[nH]ccc5c4)c3)CC2)=C(c2ccc(Cl)cc2)C1 [Venetoclax]; details: max 1 µM
# Summary of the method: as §1
# Olaparib = compound: O=C(c1cc(Cc2n[nH]c(=O)c3ccccc23)ccc1F)N1CCN(C(=O)C2CC2)CC1 [Olaparib]; details: max 10 µM
# Summary of the method: as §1
# Lapatinib = compound: CS(=O)(=O)CCNCc1ccc(-c2ccc3ncnc(Nc4ccc(OCc5cccc(F)c5)c(Cl)c4)c3c2)o1 [Lapatinib]; details: max 10 µM
# Summary of the method: as §1
# SN-38 = compound: CCc1c2c(nc3ccc(O)cc13)-c1cc3c(c(=O)n1C2)COC(=O)[C@]3(O)CC [SN-38]; details: max 0.3 µM
# Summary of the method: as §1
# AZD4320 = compound: CN(CC[C@H](CSC1=CC=CC=C1)NC2=C(C=C(C=C2)S(=O)(=O)NC(=O)C3=CC=C(C=C3)N4CCC(CC4)[C@H](C5=CC=CC=C5C6=CC=C(C=C6)Cl)O)S(=O)(=O)C(F)(F)F)CCO [AZD4320]; details: max 1 µM
# Summary of the method: as §1
# AZD8186 = compound: C[C@@H](Nc1cc(F)cc(F)c1)c1cc(C(=O)N(C)C)cc2c(=O)cc(N3CCOCC3)oc12 [AZD8186]; details: max 10 µM
# Summary of the method: as §1
# AZD5363 = compound: C1CN(CCC1(C(=O)N[C@@H](CCO)C2=CC=C(C=C2)Cl)N)C3=NC=NC4=C3C=CN4 [AZD5363]; details: max 10 µM
# Summary of the method: as §1
# Paclitaxel = compound: CC(=O)O[C@H]1C(=O)[C@@]2(C)[C@H]([C@H](OC(=O)c3ccccc3)[C@]3(O)C[C@H](OC(=O)[C@H](O)[C@@H](NC(=O)c4ccccc4)c4ccccc4)C(C)=C1C3(C)C)[C@]1(OC(C)=O)CO[C@@H]1C[C@@H]2O [Paclitaxel]; details: max 3 µM
# Summary of the method: as §1
# Doxorubicin = compound: COc1cccc2c1C(=O)c1c(O)c3c(c(O)c1C2=O)C[C@@](O)(C(=O)CO)C[C@@H]3O[C@H]1C[C@H](N)[C@H](O)[C@H](C)O1 [Doxorubicin]; details: max 1 µM
# Summary of the method: as §1
# Prexasertib = compound: COc1cccc(OCCCN)c1-c1cc(Nc2cnc(C#N)cn2)n[nH]1 [Prexasertib]; details: max 1 µM
# Summary of the method: as §1
# SG3199 = compound: CC1=CN2[C@@H](C1)C=NC3=CC(=C(C=C3C2=O)OC)OCCCCCOC4=C(C=C5C(=C4)N=C[C@@H]6CC(=CN6C5=O)C)OC [SG3199]; details: max 0.001 µM
# Summary of the method: as §1
# Alisertib = compound: COc1cc(Nc2ncc3c(n2)-c2ccc(Cl)cc2C(c2c(F)cccc2OC)=NC3)ccc1C(=O)O [Alisertib]; details: max 10 µM
# Summary of the method: as §1
Cell Line,"IC50, cell viability 72 h (AZD6738)","IC50, cell viability 72 h (AZD1390)","IC50, cell viability 72 h (Trametinib)","IC50, cell viability 72 h (Carboplatin)","IC50, cell viability 72 h (Crizotinib)","IC50, cell viability 72 h (AZD2811)","IC50, cell viability 72 h (Etoposide)","IC50, cell viability 72 h (AZD1775)","IC50, cell viability 72 h (Dasatinib)","IC50, cell viability 72 h (Gemcitabine)","IC50, cell viability 72 h (AZD7648)","IC50, cell viability 72 h (5-Fluorouracil)","IC50, cell viability 72 h (AZD0156)","IC50, cell viability 72 h (SRA737)","IC50, cell viability 72 h (AZD5153)","IC50, cell viability 72 h (Palbociclib)","IC50, cell viability 72 h (Taselisib)","IC50, cell viability 72 h (Gefitinib)","IC50, cell viability 72 h [1]","IC50, cell viability 72 h (Savolitinib)","IC50, cell viability 72 h (Selumetinib)","IC50, cell viability 72 h (AZD5991)","IC50, cell viability 72 h (MK-2206)","IC50, cell viability 72 h (Venetoclax)","IC50, cell viability 72 h (Olaparib)","IC50, cell viability 72 h (Lapatinib)","IC50, cell viability 72 h (SN-38)","IC50, cell viability 72 h (AZD4320)","IC50, cell viability 72 h (AZD8186)","IC50, cell viability 72 h (AZD5363)","IC50, cell viability 72 h (Paclitaxel)","IC50, cell viability 72 h (Doxorubicin)","IC50, cell viability 72 h (Prexasertib)","IC50, cell viability 72 h (SG3199)","IC50, cell viability 72 h (Alisertib)"
TC-YIK (Other Solid Carcinomas),1930 nM,> 300 nM,156 nM,> 10000 nM,2500 nM,21.9 nM,1640 nM,576 nM,> 2000 nM,31.3 nM,> 10000 nM,> 20000 nM,> 3000 nM,4370 nM,20.2 nM,> 10000 nM,> 10000 nM,> 10000 nM,2730 nM,> 1000 nM,7130 nM,> 1000 nM,> 10000 nM,> 1000 nM,> 10000 nM,> 10000 nM,1.86 nM,57 nM,> 10000 nM,> 10000 nM,4.02 nM,–,–,–,–
P31-FUJ (Acute Myeloid Leukemia),1290 nM,> 300 nM,616 nM,> 10000 nM,1740 nM,24 nM,2760 nM,83.1 nM,> 2000 nM,179 nM,> 10000 nM,> 20000 nM,> 3000 nM,534 nM,148 nM,> 10000 nM,3310 nM,> 10000 nM,1570 nM,> 1000 nM,8970 nM,157 nM,1680 nM,758 nM,> 10000 nM,> 10000 nM,11.7 nM,243 nM,> 10000 nM,2410 nM,5.09 nM,255 nM,2.72 nM,> 1 nM,1060 nM
